pKi: −log10 of the molar value.
Columns and labels:
Assay in all cases: Radioligand Binding Assay
[1] = target: T1, Adenosine receptor A1 (Homo sapiens, UniProt P30542)
T1 sequence (P30542 whole entry): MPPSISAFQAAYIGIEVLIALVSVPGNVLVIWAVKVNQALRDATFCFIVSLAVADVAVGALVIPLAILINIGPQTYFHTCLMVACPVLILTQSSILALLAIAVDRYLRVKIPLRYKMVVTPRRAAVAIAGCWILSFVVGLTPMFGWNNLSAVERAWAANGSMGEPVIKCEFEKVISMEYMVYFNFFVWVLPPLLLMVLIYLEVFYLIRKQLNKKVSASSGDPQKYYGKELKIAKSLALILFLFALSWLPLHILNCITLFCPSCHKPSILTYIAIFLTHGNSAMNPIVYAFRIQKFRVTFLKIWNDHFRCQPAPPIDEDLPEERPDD
Method: (§1) Dissociation constants at A1, A2A and A3 receptors (Ki-values) were determined in radioligand competition experiments as reported earlier [19,20]. All binding experiments were done in a microplate format utilizing a 96-well microplate filtration system (Millipore Multiscreen MAFC). As radioligands the agonists [3H]CCPA (1 nM) for A1, [3H]NECA (10 nM) for A2A, and [3H]HEMADO (1 nM) for A3 receptors were used. Samples were incubated with 10 µg of membrane protein for 3 h at 25 °C, filtered through the built-in filter at the bottom of the wells and washed three times with […] of ice-cold binding buffer. After addition of 20 µl of scintillator to the dried filter plates samples were counted in a Wallac Micro-Beta counter. Nonspecific binding was determined in the presence of 1 mM theophylline ([3H]CCPA) or […] (N6-phenylisopropyladenosine; [3H]NECA and [3H] HEMADO).

[2] = target: Adenosine receptor A2a (Homo sapiens, UniProt P29274)
Method: as §1

[3] = target: T2, Adenosine receptor A2b (Homo sapiens, UniProt P29275)
T2 sequence (P29275 whole entry): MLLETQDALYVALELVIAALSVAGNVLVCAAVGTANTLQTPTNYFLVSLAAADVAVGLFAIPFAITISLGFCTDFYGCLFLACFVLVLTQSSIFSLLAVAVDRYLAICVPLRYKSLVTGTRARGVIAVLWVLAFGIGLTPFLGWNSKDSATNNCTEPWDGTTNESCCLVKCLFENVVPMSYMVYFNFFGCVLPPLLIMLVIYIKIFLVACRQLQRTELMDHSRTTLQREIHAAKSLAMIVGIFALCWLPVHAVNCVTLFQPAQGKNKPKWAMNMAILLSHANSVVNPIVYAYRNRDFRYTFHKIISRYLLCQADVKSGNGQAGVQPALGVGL

Adenosine receptor A2a, sequence (P29274 whole entry): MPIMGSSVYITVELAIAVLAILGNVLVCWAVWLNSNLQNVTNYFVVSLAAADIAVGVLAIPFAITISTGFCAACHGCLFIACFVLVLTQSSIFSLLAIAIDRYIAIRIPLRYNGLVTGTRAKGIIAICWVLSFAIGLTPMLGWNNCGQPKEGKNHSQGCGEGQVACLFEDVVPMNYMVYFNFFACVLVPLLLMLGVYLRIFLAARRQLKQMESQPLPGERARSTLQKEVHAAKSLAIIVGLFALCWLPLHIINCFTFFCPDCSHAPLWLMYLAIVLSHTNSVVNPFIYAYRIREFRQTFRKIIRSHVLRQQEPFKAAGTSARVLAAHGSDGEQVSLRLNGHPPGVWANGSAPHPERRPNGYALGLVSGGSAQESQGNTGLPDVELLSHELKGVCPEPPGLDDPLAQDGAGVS

Structure (SMILES) | pKi [1] | pKi [2] | pKi [3]
COC(=O)COc1cccc(-c2nc3c([nH]2)c(=O)n(C)c(=O)n3C)c1 [1,3-Dimethyl-8-[3-(2-methoxy-2-oxoethoxy)-phenyl]xanthine (14, RB-374)] | 5.40 | 6.43 | < 5.00
COc1cc(-c2nc3c([nH]2)c(=O)n(C)c(=O)n3C)ccc1OCC(=O)N1CCN(C)CC1 [1,3-Dimethyl-8-[3-methoxy-4-{2-(1-methylpiperazin-4-yl)-2-oxoethoxy}-phenyl]-xanthine (15g, RB-446)] | < 4.52 | 5.38 | < 5.00
COc1cc(-c2nc3c([nH]2)c(=O)n(C)c(=O)n3C)ccc1OCC(=O)N1CCOCC1 [1,3-Dimethyl-8-[3-methoxy-4-{2-(morpholin-1-yl)-2-oxoethoxy}-phenyl]xanthine (15f, RB-385)] | < 4.52 | 5.56 | < 4.52
COc1cc(-c2nc3c([nH]2)c(=O)n(C)c(=O)n3C)ccc1OCC(=O)N1CCCCC1 [1,3-Dimethyl-8-[3-methoxy-4-{2-(piperidin-1-yl)-2-oxoethoxy}-phenyl]xanthine (15d, RB-391)] | < 4.52 | 5.47 | < 5.00
COc1cc(-c2nc3c([nH]2)c(=O)n(C)c(=O)n3C)ccc1OCC(=O)N1CCCC1 [1,3-Dimethyl-8-[3-methoxy-4-{2-(pyrrolidin-1-yl)-2-oxoethoxy}-phenyl]xanthine (15c, RB-392)] | < 4.52 | 5.34 | < 4.52
CN1CCN(C(=O)COc2cccc(-c3nc4c([nH]3)c(=O)n(C)c(=O)n4C)c2)CC1 [1,3-Dimethyl-8-[3-{2-(1-methylpiperazin-4-yl)-2-oxoethoxy}-phenyl]xanthine (14g, RB-380)] | 5.72 | 6.25 | 5.09
CN(C)CCNC(=O)COc1cccc(-c2nc3c([nH]2)c(=O)n(C)c(=O)n3C)c1 [1,3-Dimethyl-8-[3-{2-(dimethylaminoethylamino)-2-oxoethoxy}-phenyl]xanthine (14a, RB-379)] | 6.17 | 6.79 | 5.55
Cn1c(=O)c2[nH]c(-c3cccc(OCC(=O)N4CCCCCC4)c3)nc2n(C)c1=O [1,3-Dimethyl-8-[3-{2-(hexamethyleneimin-1-yl)-2-oxoethoxy}-phenyl]xanthine (14e, RB-376)] | 5.61 | 6.65 | 5.20
COc1ccc(CCNC(=O)COc2cccc(-c3nc4c([nH]3)c(=O)n(C)c(=O)n4C)c2)cc1OC [1,3-Dimethyl-8-[3-{2-(homoveratrylamino)-2-oxoethoxy}-phenyl]xanthine (14i, RB-377)] | 5.22 | 5.86 | < 5.00
Cn1c(=O)c2[nH]c(-c3cccc(OCC(=O)n4ccnc4)c3)nc2n(C)c1=O [1,3-Dimethyl-8-[3-{2-(imidazol-1-yl)-2-oxoethoxy}-phenyl]xanthine (14h, RB-445)] | < 4.52 | 6.29 | < 4.52
Cn1c(=O)c2[nH]c(-c3cccc(OCC(=O)N4CCOCC4)c3)nc2n(C)c1=O [1,3-Dimethyl-8-[3-{2-(morpholin-1-yl)-2-oxoethoxy}-phenyl]xanthine (14f, RB-375)] | 5.27 | 6.17 | < 5.00
Cn1c(=O)c2[nH]c(-c3cccc(OCC(=O)N4CCCCC4)c3)nc2n(C)c1=O [1,3-Dimethyl-8-[3-{2-(piperidin-1-yl)]-2-oxoethoxy}-phenyl]xanthine (14d, RB-382)] | 5.82 | 6.68 | 5.39
Cn1c(=O)c2[nH]c(-c3cccc(OCC(=O)N4CCCC4)c3)nc2n(C)c1=O [1,3-Dimethyl-8-[3-{2-(pyrrolidin-1-yl)-2-oxoethoxy}-phenyl]xanthine (14c, RB-381)] | 5.48 | 6.63 | < 5.00
COC(=O)COc1ccc(-c2nc3c([nH]2)c(=O)n(C)c(=O)n3C)cc1 [1,3-Dimethyl-8-[4-(2-methoxy-2-oxoethoxy)-phenyl]xanthine (13, RB-419)] | 6.50 | 6.77 | 6.01
COc1ccc(-c2nc3c([nH]2)c(=O)n(C)c(=O)n3C)cc1OCC(=O)N1CCN(C)CC1 [1,3-Dimethyl-8-[4-methoxy-3-{2-(1-methylpiperazin-4-yl)-2-oxo-ethoxy}-phenyl]xanthine (16g, RB-416)] | 5.44 | 6.16 | 5.18
COc1ccc(-c2nc3c([nH]2)c(=O)n(C)c(=O)n3C)cc1OCC(=O)N1CCCCC1 [1,3-Dimethyl-8-[4-methoxy-3-{2-(piperidin-1-yl)-2-oxoethoxy}-phenyl]xanthine (16d, RB-417)] | 5.79 | 7.12 | < 5.00
COc1ccc(-c2nc3c([nH]2)c(=O)n(C)c(=O)n3C)cc1OCC(=O)N1CCCC1 [1,3-Dimethyl-8-[4-methoxy-3-{2-(pyrrolidin-1-yl)-2-oxoethoxy}-phenyl]xanthine (16c, RB-414)] | 5.23 | 6.59 | < 5.00
COc1ccc(-c2nc3c([nH]2)c(=O)n(C)c(=O)n3C)cc1OCC(=O)N1CCOCC1 [1,3-Dimethyl-8-[4-methoxy-3-{(2-(morpholin-1-yl)-2-oxoethoxy}-phenyl]-xanthine (16f, RB-415)] | 5.45 | 6.33 | < 5.00
CN(C)CCNC(=O)COc1ccc(-c2nc3c([nH]2)c(=O)n(C)c(=O)n3C)cc1 [1,3-Dimethyl-8-[4-{2-(dimethylaminoethylamino)-2-oxoethoxy}-phenyl]xanthine (13a, RB-420)] | 6.66 | 7.00 | 6.04
Cn1c(=O)c2[nH]c(-c3ccc(OCC(=O)N4CCCCCC4)cc3)nc2n(C)c1=O [1,3-Dimethyl-8-[4-{2-(hexamethyleneimin-1-yl)-2-oxoethoxy}-phenyl]xanthine (13e, RB-424)] | 6.22 | 6.56 | 6.35
Cn1c(=O)c2[nH]c(-c3ccc(OCC(=O)N4CCCCC4)cc3)nc2n(C)c1=O [1,3-Dimethyl-8-[4-{2-(piperidin-1-yl)-2-oxoethoxy}-phenyl]xanthine (13d, RB-427)] | 6.38 | 6.75 | 6.40
Cn1c(=O)c2[nH]c(-c3ccc(OCC(=O)N4CCCC4)cc3)nc2n(C)c1=O [1,3-Dimethyl-8-[4-{2-(pyrrolidin-1-yl)-2-oxoethoxy}-phenyl]xanthine (13c, RB-426)] | 6.10 | 6.91 | 5.83
COc1ccc(-c2nc3c([nH]2)c(=O)n(C)c(=O)n3C)cc1OCC(=O)NCCN(C)C [1,3-Dimethyl-8-[{3-(2-(dimethylaminoethylamino)-2-oxoethoxy)-4-methoxy}-phenyl]-xanthine (16a, RB-413)] | 6.07 | 7.12 | 5.32
COc1ccc(-c2nc3c([nH]2)c(=O)n(C)c(=O)n3C)cc1OCC(=O)N1CCCCCC1 [1,3-Dimethyl-8-[{3-(2-(hexamethyleneimin-1-yl)-2-oxoethoxy)-4-methoxy}-phenyl]xanthine (16e, RB-449)] | 5.72 | 7.03 | 5.40
COc1ccc(CCNC(=O)COc2cc(-c3nc4c([nH]3)c(=O)n(C)c(=O)n4C)ccc2OC)cc1OC [1,3-Dimethyl-8-[{3-(2-(homoveratrylamino)-2-oxoethoxy)-4-methoxy}-phenyl]xanthine (16i, RB-412)] | < 4.52 | 6.11 | < 4.52
COC(=O)COc1cc(-c2nc3c([nH]2)c(=O)n(C)c(=O)n3C)ccc1OC [1,3-Dimethyl-8-[{3-(2-methoxy-2-oxoethoxy)-4-methoxy}-phenyl]xanthine (16, RB-410)] | 4.93 | 6.14 | < 5.00
COc1cc(-c2nc3c([nH]2)c(=O)n(C)c(=O)n3C)ccc1OCC(=O)NCCN(C)C [1,3-Dimethyl-8-[{4-(2-(dimethylaminoethylamino)-2-oxoethoxy)-3-methoxy}-phenyl]xanthine (15a, RB-386)] | 5.03 | 6.09 | 5.00
COc1cc(-c2nc3c([nH]2)c(=O)n(C)c(=O)n3C)ccc1OCC(=O)N1CCCCCC1 [1,3-Dimethyl-8-[{4-(2-(hexamethyleneimin-1-yl)-2-oxoethoxy)-3-methoxy}-phenyl]xanthine (15e, RB-387)] | < 5.00 | 5.62 | 5.11
COc1ccc(CCNC(=O)COc2ccc(-c3nc4c([nH]3)c(=O)n(C)c(=O)n4C)cc2OC)cc1OC [1,3-Dimethyl-8-[{4-(2-(homoveratrylamino)-2-oxoethoxy)-3-methoxy}-phenyl]-xanthine (15i, RB-389)] | < 4.52 | 6.07 | < 4.52
